# Source: patent US20050256208A1, “Pharmaceutical composition containing bakuchiol for treating woman breast cancer” (Sinphar Pharmaceutical Co., Ltd., priority 2004, published 2005)
# How the values were obtained:
# [1] = tested on: human breast cancer cell line MDA-MB231 (estrogen receptor negative); assay: In vitro cytotoxicity assay (CCK-8), MDA-MB231; assay type: cell-based; details: MDA-MB-231, MDA-MB231 cells, 48 hours incubation, read-out: 50% inhibition of cell growth concentration (IC50)
# Description: (§1) Materials: DMEM (medium), RPMI (medium), L-glutamine, penicillin, streptomycin and FBS (fetal bovine serum) were obtained from Gibco (NY, USA). Culture plasticware was purchased from Corning (MA, USA). […] All other chemicals used were of reagent grade and were purchased from Sigma or E. Merck (Germany).
# (§2) Cell lines and cell cultures: The human breast cancer cell lines T47D and MDA-MB231 were obtained from American Type Culture Collection (ATCC). Of both cancer cells, T47D is estrogen receptor positive, and MDA-MB231 is estrogen receptor negative. Cells were cultured at 37° C. in RPMI medium containing 10% charcoal-dextran stripped fetal bovine serum for T47D cells and in DMEM medium containing 10% charcoal-dextran stripped fetal bovine serum for MDA-MB231 cells with 5% CO2. The cell proliferation was determined by counting the viable cells with trypan blue exclusion.
# (§3) Cytotoxicity assay: Dispense 198 μl of cell suspension (20,000 cells for T47D per well and 10,000 cell for MDA-MB231 per well) in a 96-well plate and pre-incubate the plate for 24 hours in an incubator at 37° C. with humidified 5% CO2. […] After plate was incubated for 48 hours in the incubator, media were aspirated of and new media (100 μl) were added and incubated for 1 more hour. […] Measure the absorbance at 450 nm using a ELISA reader.
# [2] = tested on: ovariectomized female Wistar rats (osteoporosis caused by estrogen deficiency); assay: Ovariectomized rat osteoporosis model, apparent bone density of tibia; assay type: in vivo; details: two months, mean value, OVX group 1.549, Sham 1.589
# Description: The purpose of this example is to show the potency of bakuchiol in treating osteoporosis, wherein ovary of a female rat is removed to stimulate osteoporosis caused by estrogen deficiency.
# The female Wistar rats of 16 weeks old (unless specified in the other experiment description) were obtained from the stock reared by the Animal breeding center, National Scientific Council in Taipei. These rats were grouped by weights matched in order to distribute the physiological response variation from rats evenly into each group. These rats were grouping as follows: • Baseline group fed with no drug added food (n=8) • Sham operation group fed with no drug added food (Sham) (n=10) • Ovariectomy operation group fed with no drug added food (OVX) (n=8) • Ovariectomy operation group fed with Drug A (5 mg/kg) added food (OVX+A) (n=9) • Ovariectomy operation group fed with Drug B (15 mg/kg) added food (OVX+B) (n=9)
# Ovariectomy (removal of ovaries) operation: Ovariectomy was induced using a protocol similar to that described by Wronski et al (Wronski et al, Endocrinology, 123(2), 681-86 (1988)). […]
# The whole tibia and femur were stripped off attached muscles and ligaments after sacrifice. […] The weight of bone measured in the air was marked as W-air. […] The apparent bone density was calculated as [W-air/(W-air minus W-water)] […]
# [3] = tested on: five different human cancer cells: lung (A549), ovary (SK-OV-3), skin (SK-MEL-2), central nervous system (XF498), large intestine (HCT); details: five human cancer cells A549, SK-OV-3, SK-MEL-2, XF498, HCT; Arch. Pharm. Res. 15, 356-359 (1992); cited from earlier work
# [4] = tested on: human breast cancer cell line T47D (estrogen receptor positive); assay: In vitro cytotoxicity assay (CCK-8), T47D; assay type: cell-based; details: T47D cells, 48 hours incubation, read-out: 50% inhibition of cell growth concentration (IC50)
# Description: as §1, §2, §3
# [5] = tested on: ovariectomized female Wistar rats (osteoporosis caused by estrogen deficiency); assay: Ovariectomized rat osteoporosis model, bone histomorphometry of proximal tibia; assay type: in vivo; details: two months, mean value; for Erosion surface (ES/BS, %) of proximal tibia: OVX group 5.8%, Sham 4.7%; for Bone volume % (BV/TV) of proximal tibia head trabecular bone: OVX group 12.50%, Sham 29.50%
# Description: The purpose of this example is to show the potency of bakuchiol in treating osteoporosis, wherein ovary of a female rat is removed to stimulate osteoporosis caused by estrogen deficiency. The female Wistar rats of 16 weeks old (unless specified in the other experiment description) were obtained from the stock reared by the Animal breeding center, National Scientific Council in Taipei. These rats were grouped by weights matched in order to distribute the physiological response variation from rats evenly into each group. These rats were grouping as follows: • Baseline group fed with no drug added food (n=8) • Sham operation group fed with no drug added food (Sham) (n=10) • Ovariectomy operation group fed with no drug added food (OVX) (n=8) • Ovariectomy operation group fed with Drug A (5 mg/kg) added food (OVX+A) (n=9) • Ovariectomy operation group fed with Drug B (15 mg/kg) added food (OVX+B) (n=9) Ovariectomy (removal of ovaries) operation: Ovariectomy was induced using a protocol similar to that described by Wronski et al (Wronski et al, Endocrinology, 123(2), 681-86 (1988)). During the experiments, the rats were housed in hanging grid cages in groups of two at 21° C. with a 12 hours dark cycle. Food (Rat-mouse diet III, adequate in 1% of calcium content and 1.2% of phosphate content, Purina, USA) was administered by paired feeding between the experimental and control groups. Pair-feeding was carried out by calculating the average amount of food intake in the Sham group. So give the same amount of food to the OVX, OVX+A (5 mg/kg), OVX+B (15 mg/kg) group animals the following day. These animals were fed with a period of two months except for the baseline group which were killed on the very day of doing ovariectomy or sham operation. Rats of OVX+A and OVX+B groups were fed with the usual food chuck but added certain amount of compound A and B in it respectively. Water was given ad libitum to all rats. The test drug was weighted according to dose of 5 mg/kg and 15 mg/kg, and added into the ususal food chuck powder and mixed with 10% starch paste. After fully mixed, these chuck powder were made into mass manually and dried by air flow oven. The food with added drug to rats was performed by single blind method. These labeling and bone histomorphometry assessment were done based on standard procedure in bone research (Lin et al, Calcif. Tissue Int., 67, 373-377 (2000)). Specimen were prestained with Villanueva bone stain, then […] and embedded in London resin. Undecalcified sections of 7 μm thick were cut using Jung-K microtome (Leica Ltd, USA) and treated with Villanueva stain for observation under light microscopy. Seven μm thick unstained sections were prepared for fluorescent microscopy and assessed with program Osteomeasure (3.0 version, Atlanta, USA). […]
# [6] = OVX + B group, 15 mg/kg in food
smiles,measurement,setting,value
"C=C[C@@](C)(/C=C/c1ccc(O)cc1)CCC=C(C)C [Bakuchiol, bakuchiol]",IC50,[1],0.62 µg/mL
same,Bone apparent density of tibia,"[2]; OVX + A group, 5 mg/kg in food",1.582 gm/cm^3
same,Bone apparent density of tibia,[2]; [6],1.587 gm/cm^3
same,average inhibitory concentration (IC50),[3],10˜15 μg/cc
same,IC50,[4],5 µg/mL
same,"Erosion surface (ES/BS, %) of proximal tibia","[5]; OVX + A group, 5 mg/kg in food",5.0%
same,Bone volume % (BV/TV) of proximal tibia head trabecular bone,"[5]; OVX + A group, 5 mg/kg in food",19.80%
same,"Erosion surface (ES/BS, %) of proximal tibia",[5]; [6],4.8%
same,Bone volume % (BV/TV) of proximal tibia head trabecular bone,[5]; [6],20.11%
